{"source": "patent US20230013669A1", "about": "“Antibacterial Treatment Using a Cannabinoid and an Active Agent” (priority 2019, published 2023)", "format_in_all_cases": "cell-based", "key": {"[1]": {"tested_on": "Acinetobacter baumannii AL1851, IpxA mutant; Lipid A deficient (GN_237)", "test": "MIC broth microdilution, 96-well, visual reading (Example 11)", "protocol": "(§1) The experiment was performed to investigate the antimicrobial activity of cannabidiol (CBD) against an LPS deficient strain (GN_237 Acinetobacter baumannii, IpxA mutant; Lipid A deficient; obtained by colistin selection from base strain ATCC 19606) and its parent strain (GN_034, Acinetobacter baumannii, ATCC 19606).\n(§2) All plates had flat bottom wells and were covered with low-evaporation lids.\n(§3) Two biological replicates ×2 technical replicates were conducted on separate days (final n=4). Inhibition of bacterial growth was determined visually, where the MIC was recorded as the lowest compound concentration with no visible growth."}, "[2]": {"tested_on": "Acinetobacter baumannii ATCC 19606 Type Strain (GN_034)", "test": "MIC broth microdilution, 96-well, visual reading (Example 11)", "conditions": "Example 11 Table 41; GN_034; n=4 replicates", "protocol": "as §1, §2, §3"}, "[3]": {"tested_on": "Acinetobacter baumannii ATCC 19606 (GN_034)", "test": "MIC micro-broth dilution assay (Example 1 method)", "conditions": "GN_034", "experimental": "(§5) The plates were covered and incubated at 37° C. for 18-20 h.\n(§6) Optical density was read at 600 nm (OD600) using Tecan M1000 Pro Spectrophotometer. […] Analysis was performed using Microsoft Excel."}, "[4]": {"tested_on": "Escherichia coli ATCC 25922 (GN_001)", "test": "MIC micro-broth dilution assay (Example 1 method)", "conditions": "GN_001", "experimental": "as §5, §6"}, "[5]": {"tested_on": "Pseudomonas aeruginosa ATCC 27853 (GN_042)", "test": "MIC micro-broth dilution assay (Example 1 method)", "conditions": "GN_042", "experimental": "as §5, §6"}, "[6]": {"tested_on": "Escherichia coli HS71 (GN_110), CTX-M", "test": "MIC micro-broth dilution assay (Example 1 method)", "conditions": "Example 9 Table 35, compound alone, replicates", "protocol": "(§4) Analysis was performed using Microsoft Excel."}, "[7]": {"tested_on": "Enterobacter cloacae CI Patercon BoxNo: 79 (GN_016), MDR", "test": "MIC micro-broth dilution assay (Example 1 method)", "conditions": "for Minimum Inhibitory Concentration (MIC): replicates, listed as MCC_000636", "protocol": "as §4"}, "[8]": {"tested_on": "Acinetobacter baumannii 03.021.1 (GN_039), Colistin resistant", "test": "MIC micro-broth dilution assay (Example 1 method)", "conditions": "for Minimum Inhibitory Concentration (MIC): replicates, listed as MCC_000636", "protocol": "as §4"}, "[9]": {"tested_on": "Acinetobacter baumannii 03.021.1 (GN_038), Colistin resistant", "test": "MIC micro-broth dilution assay (Example 1 method)", "conditions": "for Minimum Inhibitory Concentration (MIC): replicates, listed as MCC_000636", "protocol": "as §4"}, "[10]": {"tested_on": "Pseudomonas aeruginosa FADDI-PA067 (GN_177), Polymyxin resistant", "test": "MIC micro-broth dilution assay (Example 1 method)", "conditions": "GN_177", "protocol": "as §4"}, "[11]": {"tested_on": "Klebsiella pneumoniae BAA-2146 (GN_045), NDM-1", "test": "MIC micro-broth dilution assay (Example 1 method)", "conditions": "Example 9 Table 35, compound alone, replicates, listed as MCC_000636", "protocol": "as §4"}, "[12]": {"conditions": "Example 1 Table 3, compound alone, replicates, listed as MCC_000636"}, "[13]": {"conditions": "Example 6 Table 23, compound alone, replicates, listed as MCC_000636"}, "[14]": {"conditions": "Example 8 Table 31, compound alone"}, "[15]": {"conditions": "Example 9 Table 35, compound alone"}}, "note": "Where “and” joins values, the source holds several entries; their conditions need not be identical. Equal entries are not always repeated."}
{"substance": "Polymyxin B", "values": [{"measurement": "activity alone", "setting": "[1]; Example 11, Lipid A deficient GN_237", "value": "resistant"}, {"measurement": "MIC (Test results)", "setting": "[1]; Example 11 Table 41, GN_237, n=4 replicates", "value": 128, "unit": "µg/mL"}, {"measurement": "MIC (Test results)", "setting": "[2]", "value": ">128", "unit": "µg/mL"}, {"measurement": "Minimal Inhibitory Concentration (MIC)", "setting": "[3]; [12]", "value": "1 µg/mL and 0.5 µg/mL"}, {"measurement": "Minimum Inhibitory Concentration (MIC)", "setting": "[3]; [13]", "value": "0.25 µg/mL and 0.125 µg/mL and 2 µg/mL and 1 µg/mL"}, {"measurement": "MIC of Polymyxin B", "setting": "[3]; Example 6 Table 24", "value": "1 µg/mL and 2 µg/mL"}, {"measurement": "Minimal Inhibitory Concentration (MIC)", "setting": "[4]; [12]", "value": "1 µg/mL and 0.5 µg/mL"}, {"measurement": "Minimum Inhibitory Concentration (MIC)", "setting": "[4]; [13]", "value": "0.25 μg/mL (2×) and 0.5 μg/mL and 1 μg/mL"}, {"measurement": "MIC of Polymyxin B", "setting": "[4]; Example 6 Table 24", "value": 1, "unit": "µg/mL"}, {"measurement": "Minimal Inhibitory Concentration (MIC)", "setting": "[5]; Example 1 Table 3, compound alone, replicates", "value": 1, "unit": "µg/mL"}, {"measurement": "Minimum Inhibitory Concentration (MIC)", "setting": "[5]; [13]", "value": "0.5 μg/mL (2×) and 2 μg/mL (2×)"}, {"measurement": "MIC of Polymyxin B", "setting": "[5]; Example 6 Table 24", "value": 2, "unit": "µg/mL"}, {"measurement": "Minimum Inhibitory Concentration (MIC)", "setting": "[6]", "value": 0.0625, "unit": "µg/mL"}, {"measurement": "Minimum Inhibitory Concentration (MIC)", "setting": "[7]; [14]", "value": "16 μg/mL and 8 μg/mL (3×)"}, {"measurement": "MIC of MCC_00636", "setting": "[7]; Example 8 Table 32", "value": 8, "unit": "µg/mL"}, {"measurement": "Minimum Inhibitory Concentration (MIC)", "setting": "[7]; [15]", "value": "16 μg/mL and 8 μg/mL (3×)"}, {"measurement": "Minimum Inhibitory Concentration (MIC)", "setting": "[8]; [14]", "value": "0.5 μg/mL and 0.25 μg/mL (3×)"}, {"measurement": "MIC of MCC_00636", "setting": "[8]; Example 8 Table 32", "value": 1, "unit": "µg/mL"}, {"measurement": "Minimum Inhibitory Concentration (MIC)", "setting": "[8]; [15]", "value": "0.5 μg/mL and 0.25 μg/mL (3×)"}, {"measurement": "Minimum Inhibitory Concentration (MIC)", "setting": "[9]; [14]", "value": "0.125 μg/mL (3×) and 0.25 μg/mL"}, {"measurement": "MIC of MCC_00636", "setting": "[9]; Example 8 Table 32", "value": 1, "unit": "µg/mL"}, {"measurement": "Minimum Inhibitory Concentration (MIC)", "setting": "[9]; [15]", "value": "0.125 μg/mL (3×) and 0.25 μg/mL"}, {"measurement": "Minimum Inhibitory Concentration (MIC)", "setting": "[10]; Example 8 Table 31, compound alone, replicates", "value": 2, "unit": "µg/mL"}, {"measurement": "MIC of MCC_00636", "setting": "[10]; Example 8 Table 32", "value": 2, "unit": "µg/mL"}, {"measurement": "Minimum Inhibitory Concentration (MIC)", "setting": "[11]", "value": "0.5 μg/mL and 0.25 μg/mL (3×)"}]}
